Experimental data published in US20250134867A1, “METHOD FOR MODULATING LIPID METABOLISM, AMELIORATING NON-ALCOHOLIC FATTY LIVER DISEASE AND METABOLIC SYNDROME BY USING 6-METHOXYBENZOXAZOLINONE” (Taichung District Agricultural Research and Extension …, priority 2023, published 2025).

Tests used:
[1] = system: HFD-induced obese C57BL/6J mice; experiment: Fat deposition (eWAT) and serum lipid levels in HFD-induced obese mice; format: in vivo; conditions: 12 weeks oral; for HFD-induced increase in the mass of eWAT / serum LDL-C / serum HDL cholesterol (HDL-C) / serum total cholesterol (TC) / serum triglyceride (TG): HFD mice; for HFD-induced increase in the mass of eWAT: CX 10 and 30 mg/kg/day, EGCG 30 mg/kg/day; for serum LDL-C: calculated as (TC)-(HDL-C)-(TG/5); for serum HDL cholesterol (HDL-C) / serum total cholesterol (TC) / serum triglyceride (TG): vs HFD group; for adipocyte diameters: compared with the HFD group
Text: The animals used in the examples are described below. 5-week-old male C57BL/6J mice were purchased from The National Laboratory Animal Center, Taipei, Taiwan and were maintained in a temperature-controlled room on a 12-h light-dark cycle. They were housed with four per cage and had free access to food and drinking water. Mice fed with a standard diet and adapted to the environment for 1 week were subsequently divided randomly into five groups. The ND group (n=8) continued on the same diet, whereas the other four groups (n=8 per group) were switched to the HFD (494 kcal/100 g, 45% energy as fat; TestDiet Inc., USA). Among the four HFD groups, three groups started to receive CX at 10 mg/kg/day (CX10 group), CX at 30 mg/kg/day (CX30 group), and epigallocatechin gallate (EGCG) (Sigma, Inc., USA) at 30 mg/kg/day (EGCG30 group) by oral gavage. EGCG was suspended in 0.5% methylcellulose solution for oral administration. Food consumption and weight gain were measured daily and weekly, respectively. After 12 weeks, all mice were sacrificed. Serum samples, liver tissue, epididymis adipose tissue and feces were harvested for further analysis. The experimental protocol was approved by the Animal Research Committee of the National Yang Ming Chiao Tung University (IACUC no. 1091013), and all procedures followed The Guide for the Care and Use of Laboratory Animals (NIH publication, 85-23, revised 1996) and the guidelines of the Animal Welfare Act, Taiwan. The procedure regarding immunohistochemical tissue characterization is as follows. During dissection of the mice, epididymis adipose tissue and liver were isolated, weighed, and subsequently fixed in 10% paraformaldehyde in PBS. After overnight fixation, tissues were embedded in paraffin for hematoxylin and eosin (H&E) staining. All specimens were observed microscopically (Carl Zeiss Inc., Germany) at 200× magnification. […] The procedure regarding biochemical characterization is as follows. The serum triglyceride (TG), total cholesterol (TC), high-density lipoprotein-cholesterol (HDL-C), glutamic oxaloacetic transaminase (GOT), glutamic pyruvic transaminase (GPT), albumin (ALB), uric acid (UA), and creatinine (CRE) levels were measured using enzymatic assay kits with a FUJI DRI-CHEM analyzer (Fujifilm, Tokyo, Japan). The LDL-C level was calculated as [(TC)-(HDL-C)-(TG/5)].

[2] = system: HFD-induced obese C57BL/6J mice; experiment: Body weight gain, food intake and food efficiency ratio in HFD-induced obese mice; format: in vivo; conditions: vs HFD group; for body weight gain: HFD mice, oral gavage 12 weeks, CX 10 and 30 mg/kg/day, EGCG 30 mg/kg/day; for food efficiency ratio (FER): 12 weeks
Text: To determine the effect of CX (Sigma, Inc., USA) on obesity and non-alcoholic fatty liver disease (NAFLD) in vivo, we established an experimental approach using HFD-induced obese C57BL/6J mice. CX was suspended in 0.5% methylcellulose solution for oral administration. The animals used in the examples are described below. 5-week-old male C57BL/6J mice were purchased from The National Laboratory Animal Center, Taipei, Taiwan and were maintained in a temperature-controlled room on a 12-h light-dark cycle. They were housed with four per cage and had free access to food and drinking water. Mice fed with a standard diet and adapted to the environment for 1 week were subsequently divided randomly into five groups. The ND group (n=8) continued on the same diet, whereas the other four groups (n=8 per group) were switched to the HFD (494 kcal/100 g, 45% energy as fat; TestDiet Inc., USA). Among the four HFD groups, three groups started to receive CX at 10 mg/kg/day (CX10 group), CX at 30 mg/kg/day (CX30 group), and epigallocatechin gallate (EGCG) (Sigma, Inc., USA) at 30 mg/kg/day (EGCG30 group) by oral gavage. EGCG was suspended in 0.5% methylcellulose solution for oral administration. Food consumption and weight gain were measured daily and weekly, respectively. After 12 weeks, all mice were sacrificed. Serum samples, liver tissue, epididymis adipose tissue and feces were harvested for further analysis. The experimental protocol was approved by the Animal Research Committee of the National Yang Ming Chiao Tung University (IACUC no. 1091013), and all procedures followed The Guide for the Care and Use of Laboratory Animals (NIH publication, 85-23, revised 1996) and the guidelines of the Animal Welfare Act, Taiwan.

[3] = system: carnitine palmitoyl-transferase 1 (CPT1); experiment: Western blot analysis, CPT1 expression in OA-induced HuS-E/2 cells; format: cell-based, human; conditions: CX at 50-400 μM, 0.1 mM OA-induced HuS-E/2 cells
Text: (§1) The procedure regarding Western blot analysis is as follows. For western blot analysis, an equal amount of protein from each sample was resolved by sodium dodecyl sulfate polyacrylamide gel electrophoresis (SDS-PAGE) and then transferred to polyvinylidene fluoride (PVDF) membranes. Primary antibodies against AMPK (Cat. GTX103487), adipose triglyceride lipase (ATGL) (Cat. GTX109941), carnitine palmitoyl-transferase 1 (CPT1) (Cat. GTX114337), and β-actin (Cat. GTX109639) were from GeneTex (Taiwan), and those against pAMPK (Cat. AP0432), phospho acetyl-CoA carboxylase (pACC) (Cat. AP0298), ACC (Cat. A15606), and fatty acid synthase (FAS) (Cat. A21182) was from ABclonal (China). Horseradish peroxidase (HRP)-conjugated secondary antibodies were from Jackson ImmunoResearch Laboratories, Inc., USA. WesternBright® ECL kits (Advansta Inc., USA) were used for protein visualization. Levels of protein expression were quantified by densitometric analyses.

[4] = system: adipose triglyceride lipase (ATGL); experiment: Western blot analysis, ATGL expression in OA-induced HuS-E/2 cells; format: cell-based, human; conditions: CX at 50-400 μM, 0.1 mM OA-induced HuS-E/2 cells
Text: as §1

[5] = system: adenosine 5′-monophosphate-activated protein kinase (AMPK); experiment: Western blot analysis, AMPK phosphorylation in OA-induced HuS-E/2 cells; format: cell-based, human; conditions: CX at 100-400 μM, 0.1 mM OA-induced HuS-E/2 cells
Text: as §1

[6] = system: acetyl-CoA carboxylase (ACC1); experiment: Western blot analysis, ACC1 phosphorylation in OA-induced HuS-E/2 cells; format: cell-based, human; conditions: CX at 50-400 μM, 0.1 mM OA-induced HuS-E/2 cells
Text: as §1

Row | Structure (SMILES) | HFD-induced increase in the mass of eWAT [1] | serum LDL-C [1] | serum HDL cholesterol (HDL-C) [1] | serum total cholesterol (TC) [1] | serum triglyceride (TG) [1] | adipocyte diameters [1] | body weight gain [2] | CPT1 levels [3] | food efficiency ratio (FER) ([2]; 10 mg/kg/day oral gavage) | food efficiency ratio (FER) ([2]; 30 mg/kg/day oral gavage) | ATGL expression [4] | AMPK phosphorylation [5] | ACC1 phosphorylation [6]
1 | O=C(O[C@@H]1Cc2c(O)cc(O)cc2O[C@@H]1c1cc(O)c(O)c(O)c1)c1cc(O)c(O)c(O)c1 [EGCG, epigallocatechin gallate, reference compound] | ameliorated | somewhat ameliorated | did not differ significantly from the HFD group | significantly lower than the HFD group | significantly lower than the HFD group | lower cell diameters and smaller cell size | significantly prevented body weight gain |  |  |  |  |  | 
2 | COc1ccc2[nH]c(=O)oc2c1 [CX, 6-methoxybenzoxazolinone] | ameliorated | somewhat ameliorated | did not differ significantly from the HFD group | significantly lower than the HFD group | significantly lower than the HFD group | lower cell diameters and smaller cell size | significantly prevented body weight gain | elevated CPT1 levels | greatly reduced | greatly reduced | increased ATGL expression substantially | marked increase | increasing ACC1 phosphorylation
